Square brackets hold non-standard residues; d marks the D form. Peptide text beside a SMILES is read from it. * marks the point of attachment. Ala(1H-tetrazol-5-yl) = N[C@@H](Cc1nnn[nH]1)C(=O)O; Ms = CS(=O)(=O)*
Assay: Peptide stability tests 2 and 3: Tris buffer pH 7.0, stored at 60° C., HPLC conditions 2
Type: physicochemical
Settings: 100 μM peptide, Tris buffer pH 7.0, 60° C.; for survival rate after correction for water, 60° C., 2-week storage / survival rate after correction for water, 60° C., 2-week storage (Table 7-2): 2 weeks
Experimental: (§1) Peptides 1, 2 and 6 to 9 synthesized in Example 2 were weighed and dissolved in Tris buffer (pH 7.0) to prepare 1.0 mM peptide solutions. The solutions were filtered with a Chromatdisk (product of Merck Millipore, Millex-GV, 0.22 μm). Each filtrate was diluted to 100 μM with Tris buffer (pH 7.0) and dispensed into a tube (Protein LoBind Tube by Eppendorf Co.). The prepared peptide solutions were incubated for 1 week or 2 weeks in a 60° C. thermostatic bath to obtain stored samples. A simultaneously prepared sample among the peptide solutions that was not stored was used as a standard sample (initial sample). The standard sample and the stored samples were stored at −30° C. until sample analysis.
Each stored sample was measured under the following HPLC analysis conditions 2, and the survival rate after correction for water for each peptide among the stored samples was calculated in the same manner as Example 3.
Column: XSelect CSH C18 by Waters Co., 5 μm, 4.6×250 mm
Guard column: XSelect CSH C18 by Waters. Co., 5 μm, 4.6×20 mm Guard Cartridge
Detection wavelength: 220 nm
Mobile phase A: 0.1% formic acid in water
Mobile phase B: 0.1% formic acid in acetonitrile
Measuring time: 20 minutes
Measuring sample injection rate: 50 μL
Column temperature: 40° C.
Mobile phase delivery: The mixing ratio of mobile phase A and mobile phase B was varied as shown in Table 5 for linear concentration gradient control.
as §1, with “Peptides 12 to 25, 27” for “Peptides 1, 2”, “and 28” for “and 6 to 9”, “for one” for “for 1”
The survival rate after correction for water for each peptide among the stored samples was calculated in the same manner as Example 4, and the results are shown in Table 7.
as §1, with “29” for “1, 2 and 6”, “34” for “9”, “for” for “for 1 week or”
The survival rate after correction for water for each peptide among the stored samples was calculated in the same manner as Example 4, and the results are shown in Table 7-2.

Row | SMILES | survival rate after correction for water, 60° C., 1-week storage | survival rate after correction for water, 60° C., 2-week storage | survival rate after correction for water, 60° C., 2-week storage (Table 7-2)
1 | CC[C@H](C)[C@H](NC(=O)CNC(=O)[C@H](Cc1nnn[nH]1)NC(=O)[C@H](CO)NC(=O)[C@H](Cc1c[nH]cn1)NC(C)=O)C(=O)N[C@@H](Cc1ccccc1)C(=O)N[C@H](C(=O)N[C@@H](Cc1nnn[nH]1)C(=O)N[C@@H](CO)C(=O)N[C@@H](Cc1ccc(O)cc1)C(=O)N[C@@H](CO)C(=O)N[C@@H](CCCNC(=N)N)C(=O)N[C@@H](Cc1ccc(O)cc1)C(=O)N[C@@H](CCCNC(=N)N)C(=O)N[C@@H](CCCCN)C(=O)N[C@@H](CCC(N)=O)C(=O)N[C@@H](CC(C)C)C(=O)N[C@@H](C)C(=O)N[C@H](C(=O)N[C@@H](CCCCN)C(=O)N[C@@H](CCCCN)C(=O)N[C@@H](Cc1ccc(O)cc1)C(=O)N[C@@H](CC(C)C)C(=O)N[C@@H](C)C(=O)N[C@@H](C)C(=O)N[C@H](C(=O)N[C@@H](C)C(N)=O)C(C)C)C(C)C)[C@@H](C)O [Peptide 20] (Ac-HS[Ala(1H-tetrazol-5-yl)]GIFT[Ala(1H-tetrazol-5-yl)]SYSRYRKQLAVKKYLAAVA-NH2) | 93.9% | 91.8% | 
2 | CC[C@H](C)[C@H](NC(=O)CNC(=O)[C@H](Cc1nnn[nH]1)NC(=O)[C@H](CO)NC(=O)[C@H](Cc1c[nH]cn1)NC(C)=O)C(=O)N[C@@H](Cc1ccccc1)C(=O)N[C@H](C(=O)N[C@@H](Cc1nnn[nH]1)C(=O)N[C@@H](CO)C(=O)N[C@@H](Cc1ccc(O)cc1)C(=O)N[C@@H](CO)C(=O)N[C@@H](CCCNC(=N)N)C(=O)N[C@@H](Cc1ccc(O)cc1)C(=O)N[C@@H](CCCNC(=N)N)C(=O)N[C@@H](CCCCN)C(=O)N[C@@H](C)C(=O)N[C@@H](C)C(=O)N[C@@H](C)C(=O)N[C@H](C(=O)N[C@@H](CCCCN)C(=O)N[C@@H](CCCCN)C(=O)N[C@@H](Cc1ccc(O)cc1)C(=O)N[C@@H](CC(C)C)C(=O)N[C@@H](C)C(=O)N[C@@H](C)C(=O)N[C@H](C(=O)N[C@@H](CC(C)C)C(N)=O)C(C)C)C(C)C)[C@@H](C)O [Peptide 28] (Ac-HS[Ala(1H-tetrazol-5-yl)]GIFT[Ala(1H-tetrazol-5-yl)]SYSRYRKAAAVKKYLAAVL-NH2) | 94.6% | 90.5% | 
3 | CC[C@H](C)[C@H](NC(=O)CNC(=O)[C@H](Cc1nnn[nH]1)NC(=O)[C@H](CO)NC(=O)[C@H](Cc1c[nH]cn1)NC(C)=O)C(=O)N[C@@H](Cc1ccccc1)C(=O)N[C@H](C(=O)N[C@@H](Cc1nnn[nH]1)C(=O)N[C@@H](CO)C(=O)N[C@@H](Cc1ccc(O)cc1)C(=O)N[C@@H](CO)C(=O)N[C@@H](CCCNC(=N)N)C(=O)N[C@@H](Cc1ccc(O)cc1)C(=O)N[C@@H](CCCNC(=N)N)C(=O)N[C@@H](CCCNC(=N)N)C(=O)N[C@@H](CCC(N)=O)C(=O)N[C@@H](CC(C)C)C(=O)N[C@@H](C)C(=O)N[C@H](C(=O)N[C@@H](CCCNC(=N)N)C(=O)N[C@@H](CCCNC(=N)N)C(=O)N[C@@H](Cc1ccc(O)cc1)C(=O)N[C@@H](CC(C)C)C(=O)N[C@@H](C)C(=O)N[C@@H](C)C(=O)N[C@H](C(=O)N[C@@H](CC(C)C)C(=O)NCC(=O)N[C@@H](CCCNC(=N)N)C(=O)N[C@@H](CCCNC(=N)N)C(N)=O)C(C)C)C(C)C)[C@@H](C)O [Peptide 22] (Ac-HS[Ala(1H-tetrazol-5-yl)]GIFT[Ala(1H-tetrazol-5-yl)]SYSRYRRQLAVRRYLAAVLGRR-NH2) | 98.2% |  | 
4 | CC[C@H](C)[C@H](NC(=O)CNC(=O)[C@H](Cc1nnn[nH]1)NC(=O)[C@H](C)NC(=O)[C@H](Cc1c[nH]cn1)NC(C)=O)C(=O)N[C@@H](Cc1ccccc1)C(=O)N[C@H](C(=O)N[C@@H](Cc1nnn[nH]1)C(=O)N[C@@H](C)C(=O)N[C@@H](Cc1ccc(O)cc1)C(=O)N[C@@H](CO)C(=O)N[C@@H](CCCNC(=N)N)C(=O)N[C@@H](Cc1ccc(O)cc1)C(=O)N[C@@H](CCCNC(=N)N)C(=O)N[C@@H](CCCCN)C(=O)N[C@@H](CCC(N)=O)C(=O)N[C@@H](CC(C)C)C(=O)N[C@@H](C)C(=O)N[C@H](C(=O)N[C@@H](CCCCN)C(=O)N[C@@H](CCCCN)C(=O)N[C@@H](Cc1ccc(O)cc1)C(=O)N[C@@H](CC(C)C)C(=O)N[C@@H](C)C(=O)N[C@@H](C)C(=O)N[C@H](C(=O)N[C@@H](CC(C)C)C(N)=O)C(C)C)C(C)C)[C@@H](C)O [Peptide 24] (Ac-HA[Ala(1H-tetrazol-5-yl)]GIFT[Ala(1H-tetrazol-5-yl)]AYSRYRKQLAVKKYLAAVL-NH2) | 98.1% | 94.3% | 
5 | CC[C@H](C)[C@H](NC(=O)[C@H](C)NC(=O)[C@H](Cc1nnn[nH]1)NC(=O)[C@H](CO)NC(=O)[C@H](Cc1c[nH]cn1)NC(C)=O)C(=O)N[C@@H](Cc1ccccc1)C(=O)N[C@H](C(=O)N[C@@H](Cc1nnn[nH]1)C(=O)N[C@@H](CO)C(=O)N[C@@H](Cc1ccc(O)cc1)C(=O)N[C@@H](CO)C(=O)N[C@@H](CCCNC(=N)N)C(=O)N[C@@H](Cc1ccc(O)cc1)C(=O)N[C@@H](CCCNC(=N)N)C(=O)N[C@@H](CCCCN)C(=O)N[C@@H](CCC(N)=O)C(=O)N[C@@H](C)C(=O)N[C@@H](C)C(=O)N[C@H](C(=O)N[C@@H](CCCCN)C(=O)N[C@@H](CCCCN)C(=O)N[C@@H](Cc1ccc(O)cc1)C(=O)N[C@@H](CC(C)C)C(=O)N[C@@H](C)C(=O)N[C@@H](C)C(=O)N[C@H](C(=O)N[C@@H](CC(C)C)C(N)=O)C(C)C)C(C)C)[C@@H](C)O [Peptide 32] (Ac-HS[Ala(1H-tetrazol-5-yl)]AIFT[Ala(1H-tetrazol-5-yl)]SYSRYRKQAAVKKYLAAVL-NH2) |  |  | 88.7%
6 | CC[C@H](C)[C@H](NC(=O)CNC(=O)[C@H](Cc1nnn[nH]1)NC(=O)[C@H](CO)NC(=O)[C@H](Cc1c[nH]cn1)NC(C)=O)C(=O)N[C@@H](Cc1ccccc1)C(=O)N[C@H](C(=O)N[C@@H](Cc1nnn[nH]1)C(=O)N[C@@H](CO)C(=O)N[C@@H](Cc1ccc(O)cc1)C(=O)N[C@@H](CO)C(=O)N[C@@H](CCCNC(=N)N)C(=O)N[C@@H](Cc1ccc(O)cc1)C(=O)N[C@@H](CCCNC(=N)N)C(=O)N[C@@H](CCCCN)C(=O)N[C@@H](CCC(N)=O)C(=O)N[C@@H](C)C(=O)N[C@@H](C)C(=O)N[C@H](C(=O)N[C@@H](CCCCN)C(=O)N[C@@H](CCCCN)C(=O)N[C@@H](Cc1ccc(O)cc1)C(=O)N[C@@H](CC(C)C)C(=O)N[C@@H](C)C(=O)N[C@@H](C)C(=O)N[C@H](C(=O)N[C@@H](CC(C)C)C(N)=O)C(C)C)C(C)C)[C@@H](C)O [Peptide 18] (Ac-HS[Ala(1H-tetrazol-5-yl)]GIFT[Ala(1H-tetrazol-5-yl)]SYSRYRKQAAVKKYLAAVL-NH2) | 96.7% | 90.6% | 
7 | CC[C@H](C)[C@H](NC(=O)[C@H](C)NC(=O)[C@H](Cc1nnn[nH]1)NC(=O)[C@H](CO)NC(=O)[C@H](Cc1c[nH]cn1)NS(C)(=O)=O)C(=O)N[C@@H](Cc1ccccc1)C(=O)N[C@H](C(=O)N[C@@H](Cc1nnn[nH]1)C(=O)N[C@@H](CO)C(=O)N[C@@H](Cc1ccc(O)cc1)C(=O)N[C@@H](CO)C(=O)N[C@@H](CCCNC(=N)N)C(=O)N[C@@H](Cc1ccc(O)cc1)C(=O)N[C@@H](CCCNC(=N)N)C(=O)N[C@@H](CCCCN)C(=O)N[C@@H](CCC(N)=O)C(=O)N[C@@H](CC(C)C)C(=O)N[C@@H](C)C(=O)N[C@H](C(=O)N[C@@H](CCCCN)C(=O)N[C@@H](CCCCN)C(=O)N[C@@H](Cc1ccc(O)cc1)C(=O)N[C@@H](CC(C)C)C(=O)N[C@@H](C)C(=O)N[C@@H](C)C(=O)N[C@H](C(=O)N[C@@H](CC(C)C)C(N)=O)C(C)C)C(C)C)[C@@H](C)O [Peptide 30] (Ms-HS[Ala(1H-tetrazol-5-yl)]AIFT[Ala(1H-tetrazol-5-yl)]SYSRYRKQLAVKKYLAAVL-NH2) |  |  | 92.2%

From US12304932B2, “PACAP stabilized peptide” (SENJU PHARMACEUTICAL CO., LTD., priority 2017, dated 2025)
